This assay has as its target TBK1 (Homo sapiens (Human), UniProt Q9UHD2). The experiment in a line: TBK1 low ATP kinase assay (in vitro assay 1). The format is biochemical.
The mark [1] stands for this setting: in vitro assay 1, read-out: TBK1 low ATP kinase assay IC50.

Read-outs that look alike come from different tables or passages of the source.

Sequence of TBK1 (Q9UHD2 whole entry): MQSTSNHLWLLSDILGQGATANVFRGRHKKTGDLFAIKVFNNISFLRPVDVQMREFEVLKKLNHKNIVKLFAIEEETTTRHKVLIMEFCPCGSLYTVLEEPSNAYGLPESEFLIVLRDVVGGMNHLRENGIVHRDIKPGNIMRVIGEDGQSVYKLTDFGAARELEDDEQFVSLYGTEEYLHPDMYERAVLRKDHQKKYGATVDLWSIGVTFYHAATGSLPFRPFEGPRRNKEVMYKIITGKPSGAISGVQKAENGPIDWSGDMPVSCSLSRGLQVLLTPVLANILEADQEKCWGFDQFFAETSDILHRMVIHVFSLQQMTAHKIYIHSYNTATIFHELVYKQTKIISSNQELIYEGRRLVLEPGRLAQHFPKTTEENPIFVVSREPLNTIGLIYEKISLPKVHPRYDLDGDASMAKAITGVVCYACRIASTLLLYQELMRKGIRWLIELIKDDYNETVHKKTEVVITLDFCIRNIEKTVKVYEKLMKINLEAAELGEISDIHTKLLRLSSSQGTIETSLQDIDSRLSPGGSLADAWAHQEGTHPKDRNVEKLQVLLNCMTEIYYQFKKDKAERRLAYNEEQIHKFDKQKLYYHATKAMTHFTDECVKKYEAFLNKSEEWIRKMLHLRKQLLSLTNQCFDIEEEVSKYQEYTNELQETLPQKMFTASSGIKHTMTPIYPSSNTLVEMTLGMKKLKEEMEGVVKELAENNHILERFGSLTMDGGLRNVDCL

As a reminder, the IC50 is the concentration at which inhibition is half-maximal. With `Cc1nccc(-c2ccc3nc(Nc4cc(C(C)N5CCN(C(=O)CC(F)(F)F)CC5)ccn4)[nH]c3c2)n1` (single isomer, unassigned) [Example 24.05.01.A, 3,3,3-trifluoro-1-{4-[(1R or 1S)-1-(2-{[6-(2-methylpyrimidin-4-yl)-1H-benzimidazol-2-yl]amino}pyridin-4-yl)ethyl]piperazin-1-yl}propan-1-one], the IC50 under setting [1] stood at 45.4 nM.
On the same count and under the same terms, the value for `COc1cnccc1-c1ccc2nc(Nc3cc(CN4CCN(C(=O)C5CCC5)CC4)ccn3)[nH]c2c1OCC(C)C` [Example 50.03, cyclobutyl{4-[(2-{[6-(3-methoxypyridin-4-yl)-7-(2-methylpropoxy)-1H-benzimidazol-2-yl]amino}pyridin-4-yl)methyl]piperazin-1-yl}methanone] was 645 nM; that for `CC(c1ccnc(Nc2nc3ccc(-c4cc(C(F)(F)F)ncn4)cc3[nH]2)c1)N1CCN(C(=O)CC(F)(F)F)CC1` (single isomer, unassigned) [Example 29.02.01.B, 3,3,3-trifluoro-1-(4-{(1S or 1R)-1-[2-({6-[6-(trifluoromethyl)pyrimidin-4-yl]-1H-benzimidazol-2-yl}amino)pyridin-4-yl]ethyl}piperazin-1-yl)propan-1-one] was 8.64 nM; that for `COc1cncnc1-c1ccc2nc(Nc3cc(C(C)N4CCN(C(=O)CC5CC5)CC4)ccn3)[nH]c2c1` (single isomer, unassigned) [Example 35.03.02.B, 2-cyclopropyl-1-{4-[(1S or 1R)-1-(2-{[6-(5-methoxypyrimidin-4-yl)-1H-benzimidazol-2-yl]amino}pyridin-4-yl)ethyl]piperazin-1-yl}ethanone] was 32.8 nM.
The same measure, in the same setting: the value for `CC(c1ccnc(Nc2nc3ccc(-c4ccnn4C)cc3[nH]2)c1)N1CCN(C(=O)CC(F)(F)F)CC1` (single isomer, unassigned) [Example 123.02, 3,3,3-trifluoro-1-{4-[(1R or 1S)-1-(2-{[6-(1-methyl-1H-pyrazol-5-yl)-1H-benzimidazol-2-yl]amino}pyridin-4-yl)ethyl]piperazin-1-yl}propan-1-one] was 35 nM.
With `O=C(CC(F)(F)F)N1CCN(Cc2ccnc(Nc3nc4ccc(-c5ncnc6sccc56)cc4[nH]3)c2)CC1` [Example 105.01, 3,3,3-trifluoro-1-{4-[(2-{[6-(thieno[2,3-d]pyrimidin-4-yl)-1H-benzimidazol-2-yl]amino}pyridin-4-yl)methyl]piperazin-1-yl}propan-1-one], the IC50 under setting [1] came to 270 nM.
Consider `Cc1noc(-c2ccc3nc(Nc4cc(CN5CCN(C(=O)c6ccco6)CC5)ccn4)[nH]c3c2)n1` [Example 101.14, furan-2-yl{4-[(2-{[6-(3-methyl-1,2,4-oxadiazol-5-yl)-1H-benzimidazol-2-yl]amino}pyridin-4-yl)methyl]piperazin-1-yl}methanone], for which the IC50 under setting [1] worked out at 430 nM.
Regarding `Cc1nccc(-c2ccc3nc(Nc4cc(C(C)N5CCN(C(=O)C6CCC6)CC5)ccn4)[nH]c3c2)n1` (racemic) [Example 24.04.02, (rac)-cyclobutyl{4-[1-(2-{[6-(2-methylpyrimidin-4-yl)-1H-benzimidazol-2-yl]amino}pyridin-4-yl)ethyl]piperazin-1-yl}methanone], the IC50 under setting [1] is 16.1 nM.
Take `CC(c1ccnc(Nc2nc3ccc(-c4cnn(CC5CC5)c4)cc3[nH]2)c1)N1CCN(C(=O)CC(F)(F)F)CC1` (single isomer, unassigned) [Example 39.02.02, 1-(4-{(1R or 1S)-1-[2-({6-[1-(cyclopropylmethyl)-1H-pyrazol-4-yl]-1H-benzimidazol-2-yl}amino)pyridin-4-yl]ethyl}piperazin-1-yl)-3,3,3-trifluoropropan-1-one]: under “TBK1 low ATP kinase assay IC50, in vitro assay 1”, inhibition was half-maximal at 1.8 nM (IC50).
Take `CCc1nccc(-c2ccc3nc(Nc4cc(CN5CCN(C(=O)OC(C)(C)C)CC5)ccn4)[nH]c3c2)n1` [Example 28.01, tert-butyl 4-[(2-{[6-(2-ethylpyrimidin-4-yl)-1H-benzimidazol-2-yl]amino}pyridin-4-yl)methyl]piperazine-1-carboxylate]: under setting [1], the IC50 worked out at 111 nM.
As for `COc1cnccc1-c1ccc2nc(Nc3cc(CN4CCN(C(=O)C5CC5)CC4)ccn3)[nH]c2c1OCC(C)C` [Example 50.02, cyclopropyl{4-[(2-{[6-(3-methoxypyridin-4-yl)-7-(2-methylpropoxy)-1H-benzimidazol-2-yl]amino}pyridin-4-yl)methyl]piperazin-1-yl}methanone], the IC50 under setting [1] was determined as 333 nM.
Regarding `O=C(CC(F)(F)F)N1CCN(Cc2ccnc(Nc3nc4ccc(-c5ccn[nH]5)cc4[nH]3)c2)CC1` [Example 124.02, 3,3,3-trifluoro-1-{4-[(2-{[6-(1H-pyrazol-5-yl)-1H-benzimidazol-2-yl]amino}pyridin-4-yl)methyl]piperazin-1-yl}propan-1-one], under setting [1], the IC50 stood at 100 nM.
`O=C(CC(F)(F)F)N1CCN(Cc2ccnc(Nc3nc4ccc(-c5ncnc6ccoc56)cc4[nH]3)c2)CC1` [Example 168.02, 3,3,3-trifluoro-1-{4-[(2-{[6-(furo[3,2-d]pyrimidin-4-yl)-1H-benzimidazol-2-yl]amino}pyridin-4-yl)methyl]piperazin-1-yl}propan-1-one]: the half-maximal inhibitory concentration (IC50) under setting [1] was 4.18 nM.
On the same count and under the same terms, the value for `Cc1noc(-c2ccc3nc(Nc4cc(CN5CCN(C(=O)CC(F)(F)F)CC5(C)C)ccn4)[nH]c3c2)n1` [Example 16.04.02, 1-{3,3-dimethyl-4-[(2-{[6-(3-methyl-1,2,4-oxadiazol-5-yl)-1H-benzimidazol-2-yl]amino}pyridin-4-yl)methyl]piperazin-1-yl}-3,3,3-trifluoropropan-1-one] was 496 nM.
Consider `Cc1cc(-c2ccc3nc(Nc4cc(C(C)N5CCN(C(=O)C6CCC6)CC5)ccn4)[nH]c3c2)ncn1` (single isomer, unassigned) [Example 30.03.02.A, cyclobutyl{4-[(1R or 1S)-1-(2-{[6-(6-methylpyrimidin-4-yl)-1H-benzimidazol-2-yl]amino}pyridin-4-yl)ethyl]piperazin-1-yl}methanone], for which, under setting [1], the 50% inhibitory concentration (IC50) stood at 4.15 nM.
Take `Cc1noc(-c2ccc3nc(Nc4cc(CN5CCN(c6cncc(Cl)n6)CC5)ccn4)[nH]c3c2)n1` [Example 101.29, N-(4-{[4-(6-chloropyrazin-2-yl)piperazin-1-yl]methyl}pyridin-2-yl)-6-(3-methyl-1,2,4-oxadiazol-5-yl)-1H-benzimidazol-2-amine]: the IC50 under setting [1] was 450 nM.
`COc1cncnc1-c1ccc2nc(Nc3cc(CN4CCN(C(=O)N5CCOCC5)CC4)ccn3)[nH]c2c1` [Example 35.01.07, {4-[(2-{[6-(5-methoxypyrimidin-4-yl)-1H-benzimidazol-2-yl]amino}pyridin-4-yl)methyl]piperazin-1-yl}(morpholin-4-yl)methanone]: the concentration for half-maximal inhibition (IC50) under setting [1] worked out at 77.3 nM.
For `CC(c1ccnc(Nc2nc3ccc(-c4cc(C(F)(F)F)ncn4)c(F)c3[nH]2)c1)N1CCN(C(=O)OC(C)(C)C)CC1` (single isomer, unassigned) [Example 173.01, tert-butyl 4-{(1R or 1S)-1-[2-({7-fluoro-6-[6-(trifluoromethyl)pyrimidin-4-yl]-1H-benzimidazol-2-yl}amino)pyridin-4-yl]ethyl}piperazine-1-carboxylate], the IC50 under setting [1] turned out to be 396 nM.
`COc1cc(-c2ccc3nc(Nc4cc(C(C)N5CCN(C(=O)C6CC6)CC5)ccn4)[nH]c3c2)ncn1` (racemic) [Example 34.02.02, (rac)-cyclopropyl{4-[1-(2-{[6-(6-methoxypyrimidin-4-yl)-1H-benzimidazol-2-yl]amino}pyridin-4-yl)ethyl]piperazin-1-yl}methanone]: the concentration for half-maximal inhibition (IC50) under setting [1] came out at 9.1 nM.
Consider `CC(c1ccnc(Nc2nc3ccc(-c4cc(OCC(F)(F)F)ncn4)cc3[nH]2)c1)N1CCN(C(=O)C2CC2)CC1` (single isomer, unassigned) [Example 119.03, cyclopropyl(4-{(1R or 1S)-1-[2-({6-[6-(2,2,2-trifluoroethoxy)pyrimidin-4-yl]-1H-benzimidazol-2-yl}amino)pyridin-4-yl]ethyl}piperazin-1-yl)methanone], for which the IC50 under setting [1] came out at 5.93 nM.
With `O=C(CC(F)(F)F)N1CCN(Cc2ccnc(Nc3nc4ccc(-c5cc(NCC6CC6)ncn5)cc4[nH]3)c2)CC1` [Example 142.02, 1-[4-({2-[(6-{6-[(cyclopropylmethyl)amino]pyrimidin-4-yl}-1H-benzimidazol-2-yl)amino]pyridin-4-yl}methyl)piperazin-1-yl]-3,3,3-trifluoropropan-1-one], the IC50 under setting [1] amounted to 6.6 nM.
For the molecule `O=C(C1CC1)N1CCN(Cc2ccnc(Nc3nc4ccc(-c5ccn(CC6CC6)c(=O)c5)cc4[nH]3)c2)CC1` [Example 44.02, 4-{2-[(4-{[4-(cyclopropylcarbonyl)piperazin-1-yl]methyl}pyridin-2-yl)amino]-1H-benzimidazol-6-yl}-1-(cyclopropylmethyl)pyridin-2(1H)-one], the IC50 under setting [1] was 66.8 nM.
Regarding `CC(c1ccnc(Nc2nc3ccc(-c4cc(N5CCCC5)ncn4)cc3[nH]2)c1)N1CCN(C(=O)C2CC2(F)F)CC1` (single isomer, unassigned) [Example 117.05, ((1RS)-2,2-difluorocyclopropyl)(4-{(1R or 1S)-1-[2-({6-[6-(pyrrolidin-1-yl)pyrimidin-4-yl]-1H-benzimidazol-2-yl}amino)pyridin-4-yl]ethyl}piperazin-1-yl)methanone], under setting [1], the half-maximal inhibitory concentration (IC50) turned out to be 0.473 nM.
Same read-out and setting: the value for `O=C(C1CC1)N1CCN(Cc2ccnc(Nc3nc4ccc(-c5c(F)cncc5Cl)cc4[nH]3)c2)CC1` [Example 132.03, {4-[(2-{[6-(3-chloro-5-fluoropyridin-4-yl)-1H-benzimidazol-2-yl]amino}pyridin-4-yl)methyl]piperazin-1-yl}(cyclopropyl)methanone] was 260 nM.
Same read-out and setting: the result for `CC(c1ccnc(Nc2nc3ccc(-c4cc(OCC(F)(F)C(F)(F)F)ncn4)cc3[nH]2)c1)N1CCN(C(=O)OC(C)(C)C)CC1` (single isomer, unassigned) [Example 166.01, tert-butyl 4-{(1R or 1S)-1-[2-({6-[6-(2,2,3,3,3-pentafluoropropoxy)pyrimidin-4-yl]-1H-benzimidazol-2-yl}amino)pyridin-4-yl]ethyl}piperazine-1-carboxylate] reads 300 nM.

The record behind these values is US10894784B2, “Heteroarylbenzimidazole compounds” (BAYER PHARMA AKTIENGESELLSCHAFT, priority 2015, dated 2021).
